According to patent publication US8802597B2, “Herbicidal pyrimidines” (E I du Pont de Nemours and Company, priority 2003, dated 2014):

Assays:
Assay in all cases: Test A pre/postemergence
Format in all cases: in vivo
[1] = system: velvetleaf (Abutilon theophrasti)
Procedure, shortened: (§1)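 Seeds in loam–sand blend received preemergence directed soil spray and, concurrently, postemergence application (plants 2–10 cm, 1–2-leaf stage) of compound in non-phytotoxic solvent with surfactant. After about ten days in greenhouse, injury rated visually versus untreated controls, 0 (no effect) to 100 (complete control).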

[2] = system: crabgrass (Digitaria sanguinalis)
Procedure, shortened: as §1

[3] = system: morningglory (Ipomoea spp.)
Procedure, shortened: as §1

[4] = system: giant foxtail (Setaria faberi)
Procedure, shortened: as §1

[5] = system: redroot pigweed (Amaranthus retroflexus)
Procedure, shortened: as §1

[6] = system: barnyardgrass (Echinochloa crus-galli)
Procedure, shortened: as §1

[7] = Postemergence, 125 g ai/ha, 0 to 100 scale (0 no effect, 100 complete control)
[8] = Postemergence, 500 g ai/ha, 0 to 100 scale (0 no effect, 100 complete control)
[9] = Preemergence, 125 g ai/ha, 0 to 100 scale where 0 is no effect and 100 is complete control, approximately ten days
[10] = Preemergence, 500 g ai/ha, 0 to 100 scale where 0 is no effect and 100 is complete control, approximately ten days

| Structure (SMILES) | Plant response rating, Velvetleaf [1, 7] | Plant response rating, Velvetleaf [1, 8] | Plant response rating, Velvetleaf [1, 9] | Plant response rating, Velvetleaf [1, 10] | Plant response rating, Crabgrass [2, 7] | Plant response rating, Crabgrass [2, 8] | Plant response rating, Crabgrass [2, 9] | Plant response rating, Crabgrass [2, 10] | Plant response rating, Morningglory [3, 7] | Plant response rating, Morningglory [3, 8] | Plant response rating, Morningglory [3, 9] | Plant response rating, Morningglory [3, 10] | Plant response rating, Foxtail, Giant [4, 7] | Plant response rating, Foxtail, Giant [4, 8] | Plant response rating, Foxtail, Giant [4, 9] | Plant response rating, Foxtail, Giant [4, 10] | Plant response rating, Pigweed [5, 7] | Plant response rating, Pigweed [5, 8] | Plant response rating, Pigweed [5, 9] | Plant response rating, Pigweed [5, 10] | further results |
| --- | --- | --- | --- | --- | --- | --- | --- | --- | --- | --- | --- | --- | --- | --- | --- | --- | --- | --- | --- | --- | --- |
| CCOC(=O)c1nc(-c2cccc(Cl)c2)nc(N)c1Cl [Compound 100] | 50 | 70 | 0 | 0 | 0 | 0 | 10 | 0 | 40 | 55 | 0 | 0 | 0 | 0 | 0 | 0 | 10 | 25 | 20 | 0 | Plant response rating, Barnyardgrass [6, 7]: 0; Plant response rating, Barnyardgrass [6, 8]: 10; Plant response rating, Barnyardgrass [6, 9]: 5; Plant response rating, Barnyardgrass [6, 10]: 0 |
| Nc1nc(C2CC2)nc(C(=O)OCCCO)c1Cl [Compound 143] | 75 | 95 | 90 | 95 | 5 | 60 | 70 | 95 | 90 | 90 | 90 | 100 | 25 | 80 | 35 | 75 | 70 | 90 | 65 | 95 | Plant response rating, Barnyardgrass [6, 7]: 55; Plant response rating, Barnyardgrass [6, 8]: 75; Plant response rating, Barnyardgrass [6, 9]: 65; Plant response rating, Barnyardgrass [6, 10]: 85 |
| CC(C)=NOC(=O)c1nc(C2CC2)nc(N)c1Cl [Compound 146] | 85 | 100 | 85 | 100 | 20 | 80 | 35 | 75 | 85 | 100 | 95 | 100 | 80 | 85 | 60 | 90 | 90 | 95 | 75 | 95 | Plant response rating, Barnyardgrass [6, 7]: 70; Plant response rating, Barnyardgrass [6, 8]: 90; Plant response rating, Barnyardgrass [6, 9]: 65; Plant response rating, Barnyardgrass [6, 10]: 90 |
| COC(=O)COC(=O)c1nc(C2CC2)nc(N)c1Cl [Compound 148] | 75 | 95 | 80 | 100 | 10 | 85 | 45 | 90 | 90 | 100 | 90 | 100 | 45 | 80 | 40 | 80 | 75 | 95 | 80 | 90 | Plant response rating, Barnyardgrass [6, 7]: 68; Plant response rating, Barnyardgrass [6, 8]: 90; Plant response rating, Barnyardgrass [6, 9]: 65; Plant response rating, Barnyardgrass [6, 10]: 85 |
